One data set deals with REH. Nature of the data set: growth rate after taurolidine treatment, REH. In kind it is cell-based. To be noted: Homo sapiens, 72 h, growth over three days, read-out: growth rate (% of control). The method, then: FIGS. 8A and 8B depict cell viability and growth rates for REH cell line following taurolidine treatment, in terms of % trypan blue negative cells and % cell number, respectively. Cells were treated with various concentrations of taurolidine for 4 hours in AIM-V+0.01% BCS. After aliquots were collected for LDH assay, the remainder of the culture was rinsed in HBSS and resuspended in RPMI+10% BCS without taurolidine. Counts of trypan blue-negative cells (FIG. 8A), and total cell number (FIG. 8B), were recorded daily thereafter (with the measurement at Day 1 being made immediately after the 4 hour taurolidine treatment). […] Doubling times were determined under each condition, and expressed as a percentage of the rate of doubling of untreated cells. […]
In these experiments, integrity of cell membranes following taurolidine treatment was assessed by exclusion of trypan blue and by measuring the release of LDH in MM6, K-562, HL-60, and REH cells. […] A parallel aliquot of cells was lysed by three cycles of freeze/thaw and the quantity of LDH released was taken to be 100%. […]
HL-60 cells treated with 50 μl taurolidine. In these samples, LDH present in the culture medium was 8.3±2.3% of that released by completely lysed cells, compared with 2.3±0.8% measured in control cultures. […]
^b Growth rate was measured over three days following treatment.

A further data set has as its system Monocytes. In words: TUNEL / propidium iodide flow cytometry, monocytes in PBMC, culture medium. Type of data set: cell-based, human. The method, then:
FIG. 14A and FIG. 14B are terminal deoxytransferase-mediated deoxyuridine-triphosphate-biotin nick end labeling assay (TUNEL) analyses of control cells and taurolidine-treated PBMC, respectively. Cells were incubated with 100 μg/ml taurolidine for six hours and processed for TUNEL analysis as given below. Parallel samples were stained with FITC-conjugated anti-CD14 and propidium iodide (PI) as described below. Ten thousand events were recorded per sample. TUNEL signal (x-axis) is a measure of DNA fragmentation, which FSC (y-axis) is related to cell size. TUNEL-negative lymphocytes are bounded by the rectangle R1, while TUNEL-negative monocytes (CD14 positive cells) are bounded by the rectangle R2. The vertical line indicates demarcation between TUNEL-negative and TUNEL-positive cells. There were minimal numbers of PI-positive cells in the six hour samples (see Table IV).
In the second method, DNA fragmentation was detected via TUNEL assay according to the manufacturer's instructions. With this methodology, 2×10^6 cells were fixed with 2% paraformaldehyde, permeabilized with 0.1% Triton X-100/0.1% citrate, incubated at 37° C. with terminal deoxynucleotidyl transferase and FITC-dUTP, rinsed and analyzed by flow cytometry. Enhanced FITC signal indicates apoptosis-specific DNA fragmentation. Gavriali, et al, "Identification of programmed cell death in situ via specific labeling of nuclear DNA fragmentation," J Cell Biol 119:493 (1992). Parallel aliquots of unfixed cells were treated with PI and FITC-conjugated anti-CD14 and analyzed by flow cytometry, in order to identify cells with permeable cell membranes (since PI binds to DNA but is excluded from cells with intact plasma membranes) and also to determine the cell-specificity of the apoptotic signal.
A Becton-Dickinson FACSCalibur instrument was used for flow cytometric analysis of cells. Assessment of cell diameter (forward scatter; FCS) and granularity (side scatter; SSC).was carried out on unfixed cells. Discrimination between lymphocytes and monocytes was made possible by their characteristic differences in FSC and SSC, and confirmed by staining monocytes with FITC-labeled anti-CD14 antibodies and lymphocytes with a combination of FITC-conjugated anti-CD3 and PE-conjugated anti-CD19. After incubation with taurolidine (with or without concomitant LPS treatment), cells were rinsed twice in phosphate-buffered saline containing 0.1% bovine serum albumin (PBSA) and 1×10^6 cells were resuspended in 0.1 ml PBSA. After 5 μl FITC-conjugated anti-CD14 was added, cells were incubated in the dark on ice for 15 minutes and then centrifuged at 250×g. Cells were resuspended in 500 μl PBSA containing 5 μg/ml PI and subjected to flow cytometry.
Consequently, TUNEL analysis was performed on PBMC at 3, 6, or 24 hours after treatment with 25 to 100 μg/ml taurolidine. Aliquots of harvested cells were also labeled with FITC-conjugated anti-CD14 antibodies and PI, which allowed identification of monocytes (CD14-positive cells) and cells with damaged cell membranes (PI-positive cells). […] Thus, nearly 75% of the monocytes were TUNEL-positive following treatment with 100 μg/ml taurolidine for six hours. Confirmation that the TUNEL-positive cells were monocytes was obtained by staining with FITC-conjugated anti-CD14.
^a Analysis by flow cytometry after staining cells with FITC-conjugated
anti-CD14 and PI, and processing for TUNEL. Data are mean ± SD of two
^b Percent of cells present in the TUNEL-negative region in control

As to `O=S1(=O)CCN(CN2CCS(=O)(=O)NC2)CN1` [taurolidine, 4,4'-methylenebis(perhydro-1,2,4-thiadiazin 1,1-dioxide)], the activity at 50 µg/mL with REH (50 μg/ml for 4 h) came out at 1%. Further, the activity at 100 µg/mL with REH (100 μg/ml for 4 h) worked out at 18%. Besides, in the data set with Monocytes (100 μg/ml taurolidine, 6 h, culture medium, 360 min), the “TUNEL-positive (apoptotic) monocytes” value is recorded as “approximately 75%”. In addition, in the data set on Monocytes (25 and 50 μg/ml taurolidine, versus 100 μg/ml), the “induction of apoptosis at lower doses” value is reported as “lower levels of induction of apoptosis”. The cytotoxicity at 100 µg/mL in the data set on Monocytes (Homo sapiens, Monocyte, 100 μg/ml taurolidine, 6 h, culture medium, read-out: TUNEL-positive (apoptotic) monocytes) was roughly 75%. For the same compound, the viability at 25 µg/mL in the data set on Monocytes (Homo sapiens, Monocyte, monocytes, 25 μg/ml, 6 h, percent of control, read-out: % TUNEL-Negative) came to 88.3 ± 2.7%. The viability at 50 µg/mL with Monocytes (Homo sapiens, Monocyte, monocytes, 50 μg/ml, 6 h, percent of control, read-out: % TUNEL-Negative) was 67.8 ± 18%. Also, the viability at 100 µg/mL in the data set with Monocytes (Homo sapiens, Monocyte, monocytes, 100 μg/ml, 6 h, percent of control, read-out: % TUNEL-Negative) worked out at 25.1 ± 11.8%. Further, the “onset of apoptosis after treatment” value with Monocytes (monocytes) is given as “detectable within four to six hours”.

For the origin of these results see patent publication US6303596A, “Use of taurolidine for treatment of leukemias” (priority 2000, dated 2001).
